Where “and” joins values, the source holds several entries; their conditions need not be identical. Equal entries are not always repeated. Entries after “also recorded” stand apart in the source; their conditions may differ. Where two headings read alike, the source gives them in different places.

As usually defined, the EC50 is the concentration that produces a half-maximal response. A lower EC50 goes with higher potency in that assay. The Cmax is the peak of the concentration-time curve. As a reminder, the AUC(0-t) is the area under the concentration-time curve up to a stated or last time point. Higher therefore signals high exposure. As usually defined, the Tmax is the time from dosing to the highest level.

Data set [1] addresses T1, human (α4)2(β2)2α5 nAChRs (Homo sapiens, UniProt P17787+P30532+P43681).
T1 construct: expressed in transfected cells
The data set is described as follows: FLEXstation membrane potential assay in HEK cells stably expressing (α4)2(β2)2α5 nAChRs. It counts as cell-based. The text has this:
Human embryonic kidney (HEK) cell lines stably expressing human (α4)2(β2)2β2/α4 (α4β2*) nAChRs, (α4)2(β2)2α5 nAChRs, (α4)2(β2)2β3 nAChRs, (α3)2(β4)2α3/β4 (α3β4*) nAChRs, (α3)2(β2)2α3/β2 (α3β2*) nAChRs, (α3)2(β4)2α5 nAChRs, or (α3)2(β2)2α5 nAChRs were maintained as described previously ([Wang et al., 2015]; [Kuryatov et al., 2005]; [Caligiuri et al., 2022]). The FLEXstation bench top scanning fluorometer from Molecular Devices was used to assay nAChR function in these cells, according to published protocols ([Wang et al., 2015]; [Kuryatov et al., 2005]). The membrane potential kit (Molecular Devices) was used according to the manufacturer’s protocols. Serial dilutions of SR9883 were manually added to the assay plate 15 min prior to recording. […] Compound dilutions were prepared in V-shaped 96-well plates (Fisher Scientific Co.) and added to cell culture wells at a rate of 20 μL s^−1 during recording. Cells were incubated at 29°C for 6–20 h prior to assays to upregulate nAChRs ([Wang et al., 2015]; [Kuryatov et al., 2005]). Data points were averaged from 3 to 4 responses from separate wells. Potency and efficacy were calculated using the Hill equation as described previously ([Wang et al., 2015]).
Concentration-response curves of SR9883 actions in nAChR-expressing HEK cells and oocytes were fitted to the Hill equation using a nonlinear least squares curve fit method and efficacy and potency values were calculated as previously described ([Wang et al., 2015]). Plasma and brain levels of SR9983 after oral administration were compared using a two-tailed paired t test. […] For the ICSS threshold experiment, percentages of baseline reward threshold scores were calculated by expressing the absolute threshold scores as a percentage of the scores obtained during baseline. The baseline values were the mean thresholds on the three sessions prior to drug injections. Response latency data were analyzed in the same manner as the threshold data. […] Effects of SR9883 on responding for food pellets in rats was analyzed by a two-tailed paired t test. […] Significant main or interaction effects in ANOVAs were followed by Bonferroni or Newman–Keuls post-hoc tests as appropriate. All statistical analyses were performed using GraphPad Prism software with α set to 0.05.

Data set [2] relates to human (α3)2(β2)2α3/β2 (α3β2*) nAChRs. Description: FLEXstation membrane potential assay in HEK cells stably expressing α3β2* nAChRs. It counts as cell-based. To be noted: SR9883 0.0005–10 μM. The text has this:
Human embryonic kidney (HEK) cell lines stably expressing human (α4)2(β2)2β2/α4 (α4β2*) nAChRs, (α4)2(β2)2α5 nAChRs, (α4)2(β2)2β3 nAChRs, (α3)2(β4)2α3/β4 (α3β4*) nAChRs, (α3)2(β2)2α3/β2 (α3β2*) nAChRs, (α3)2(β4)2α5 nAChRs, or (α3)2(β2)2α5 nAChRs were maintained as described previously ([Wang et al., 2015]; [Kuryatov et al., 2005]; [Caligiuri et al., 2022]). The FLEXstation bench top scanning fluorometer from Molecular Devices was used to assay nAChR function in these cells, according to published protocols ([Wang et al., 2015]; [Kuryatov et al., 2005]). The membrane potential kit (Molecular Devices) was used according to the manufacturer’s protocols. Serial dilutions of SR9883 were manually added to the assay plate 15 min prior to recording. […] Potency and efficacy were calculated using the Hill equation as described previously ([Wang et al., 2015]).
Concentration-response curves of SR9883 actions in nAChR-expressing HEK cells and oocytes were fitted to the Hill equation using a nonlinear least squares curve fit method and efficacy and potency values were calculated as previously described ([Wang et al., 2015]). […] For the ICSS threshold experiment, percentages of baseline reward threshold scores were calculated by expressing the absolute threshold scores as a percentage of the scores obtained during baseline. […] Response latency data were analyzed in the same manner as the threshold data. […]

Data set [3] in a line: Plasma pharmacokinetics after IV or PO administration. In kind it is in vivo, male C57BL/6J mice. Here is the method:
Mice prepared with intravenous catheters and treated with SR9883 via oral (10 mg kg^−1) or intravenous (1 mg kg^−1) routes of administration. Blood samples were collected up to 240 min after treatment into lithium heparin coated tubes (Ram Scientific) and stored on wet ice. Blood samples were later centrifuged for 3 min at 5,000 RPM to separate plasma from red blood cells. Plasma was collected into a fresh tube and stored at −80°C. A separate group of mice was treated with SR9883 (20 mg kg^−1 PO) and killed by cervical dislocation 120 min later. Their brains were collected and stored at −80°C. SR9883 levels were quantified in plasma and brain by mass spectrometry using an ABSciex 5,500 instrument and using multiple reaction monitoring as previously described ([Radnai et al., 2021]). Brain samples were homogenized in saline and then immediately treated with twice the amount (v:v) of acetonitrile to extract the compound. Plasma samples were directly treated with acetonitrile. Samples were filtered through a 0.2 μm filter plate prior to injection onto the LC–MS/MS as previously described ([Radnai et al., 2021]).

Where [4] appears, read: male, C57BL/6J, mouse, IV 1 mg kg^−1, plasma, n = 3.
Setting [5] is: male, C57BL/6J, mouse, PO 10 mg kg^−1, plasma, n = 3.

T1 sequence (P43681 29-627 limits assumed): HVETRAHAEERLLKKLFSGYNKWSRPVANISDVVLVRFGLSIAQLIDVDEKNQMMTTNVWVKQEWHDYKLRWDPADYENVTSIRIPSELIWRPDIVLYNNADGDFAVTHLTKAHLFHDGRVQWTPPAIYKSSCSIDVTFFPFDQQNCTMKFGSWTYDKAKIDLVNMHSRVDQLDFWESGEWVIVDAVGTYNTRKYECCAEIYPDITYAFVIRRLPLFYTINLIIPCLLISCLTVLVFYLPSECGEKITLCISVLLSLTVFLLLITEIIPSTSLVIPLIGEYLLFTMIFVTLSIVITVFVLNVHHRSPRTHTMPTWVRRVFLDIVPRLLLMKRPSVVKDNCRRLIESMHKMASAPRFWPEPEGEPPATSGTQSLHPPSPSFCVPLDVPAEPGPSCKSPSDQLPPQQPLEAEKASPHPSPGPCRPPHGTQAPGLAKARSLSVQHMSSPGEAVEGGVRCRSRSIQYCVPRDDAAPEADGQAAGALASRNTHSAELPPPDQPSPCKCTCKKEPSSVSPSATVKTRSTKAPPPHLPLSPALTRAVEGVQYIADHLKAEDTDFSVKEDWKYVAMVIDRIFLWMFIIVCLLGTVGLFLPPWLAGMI
T1 sequence (P17787 26-502): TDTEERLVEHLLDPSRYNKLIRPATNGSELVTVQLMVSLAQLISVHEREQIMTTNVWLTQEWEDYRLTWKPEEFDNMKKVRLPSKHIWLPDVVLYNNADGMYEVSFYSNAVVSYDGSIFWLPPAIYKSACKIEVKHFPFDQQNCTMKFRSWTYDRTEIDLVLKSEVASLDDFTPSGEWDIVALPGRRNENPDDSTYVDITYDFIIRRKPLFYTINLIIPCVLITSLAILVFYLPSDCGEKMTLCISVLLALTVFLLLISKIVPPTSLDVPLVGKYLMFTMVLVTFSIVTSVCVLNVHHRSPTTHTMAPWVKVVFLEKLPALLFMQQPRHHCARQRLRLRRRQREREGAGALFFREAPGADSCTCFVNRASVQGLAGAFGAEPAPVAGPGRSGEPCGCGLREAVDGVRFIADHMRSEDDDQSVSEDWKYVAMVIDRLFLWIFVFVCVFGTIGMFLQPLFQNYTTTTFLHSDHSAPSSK
T1 sequence (P30532 23-468): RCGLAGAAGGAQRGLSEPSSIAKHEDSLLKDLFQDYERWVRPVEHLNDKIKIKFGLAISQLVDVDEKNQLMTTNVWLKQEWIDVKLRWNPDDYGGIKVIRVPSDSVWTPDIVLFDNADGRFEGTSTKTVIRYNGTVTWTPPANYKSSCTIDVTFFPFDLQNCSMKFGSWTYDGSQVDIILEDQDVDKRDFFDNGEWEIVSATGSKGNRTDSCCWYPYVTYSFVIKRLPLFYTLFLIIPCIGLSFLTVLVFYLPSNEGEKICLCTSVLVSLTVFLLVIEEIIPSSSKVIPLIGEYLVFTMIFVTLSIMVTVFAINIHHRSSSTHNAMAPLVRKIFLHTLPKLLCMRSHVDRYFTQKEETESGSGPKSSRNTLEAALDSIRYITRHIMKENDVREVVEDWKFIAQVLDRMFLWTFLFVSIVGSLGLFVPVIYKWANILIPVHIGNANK

Consider `N#Cc1cccc(-n2nnc(-c3cccnc3)n2)c1` [SR9883, 3-(5-(pyridin-3-yl)-2H-tetrazol-2-yl)benzonitrile], for which, in data set [1] (SR9883 10 μM, nicotine 0.001–50 μM), the “Effect on maximum response to nicotine” value was “no effect”. The same compound registered an EC50 in data set [1] (SR9883 0.0005–10 μM on response to EC20-30 nicotine, HEK cells, ±SEM) of 321 ± 98.2 nM. Also, the nHill in data set [1] (SR9883 0.0005–10 μM on response to EC20-30 nicotine, ±SEM) is given as 0.8620 ± 0.1564. The Efficacy in data set [1] (response to EC20-30 nicotine with SR9883 relative to nicotine alone, ±SEM) is given as 146.18 ± 10.93%. For the same compound, the “EC50 (enhancement of response to EC20-30 nicotine)” value in data set [2] was “no effect; also recorded: No enhancement”. In data set [3] (IV 1 mg kg^−1, n = 3), this compound returned a Vss_obs of 2.72 ± 0.89 L/kg. The Cl_obs in data set [3] (PO 10 mg kg^−1, n = 3) worked out at 24.59 ± 2.42 mL/min/kg. The half-life in data set [3] (male, C57BL/6J, mouse, plasma, iv, 1 mg/kg, IV 1 mg kg^−1, as stated in text, read-out: plasma half-life (T½)) was approximately 53 min; in data set [3] (male, C57BL/6J, mouse, plasma, iv, 1 mg/kg, IV 1 mg kg^−1, plasma, n = 3, mean (S.E.M.), read-out: T1/2 (converted)), 52.8 ± 21.1 min; in data set [3] (male, C57BL/6J, mouse, plasma, other: intravenous and oral, after IV and oral administration, read-out: half-life), 50 to 60 min; in data set [3] (male, C57BL/6J, mouse, plasma, po, 10 mg/kg, PO 10 mg kg^−1, as stated in text, read-out: T½), approximately 64 min; in data set [3] (male, C57BL/6J, mouse, plasma, po, 10 mg/kg, PO 10 mg kg^−1, plasma, n = 3, mean (S.E.M.), read-out: T1/2 (converted)), 224 ± 36.6 min. In addition, the Cmax in data set [3] (male, C57BL/6J, mouse, plasma, iv, 1 mg/kg, IV 1 mg kg^−1, plasma, n = 3) was ~775 ng/mL and ~3 µM; in data set [3] (male, C57BL/6J, mouse, plasma, po, 10 mg/kg, PO 10 mg kg^−1, plasma, n = 3), 1020 ± 60.6 ng/mL. Further, in data set [3] (male, C57BL/6J, mouse, plasma, IV 1 mg kg^−1, n = 3, read-out: Cl_obs), the clearance amounted to 45.7 ± 12.8 mL/min/kg. Moreover, the AUC(0-t) worked out at 1.77 ± 0.62 µM·h in data set [3] (setting [4]) and 21.1 ± 0.54 µM·h in data set [3] (setting [5]). Further, the Tmax in data set [3] (setting [4]) stood at 4.8 min; in data set [3] (setting [5]), 64.8 ± 30.6 min.

The values above are taken from PMC11428108 (Frontiers in Molecular Neuroscience, 2024).
